Measurements as given in US20170202838A1, “IMMUNOMODULATOR” (TAIHO PHARMACEUTICAL CO., LTD., priority 2015, published 2017).

Assays:
[1] = system: human peripheral blood mononuclear cells; assay: Induction of cytokine production in human peripheral blood mononuclear cells, Bio-Plex Pro cytokine assay (Example 7); assay type: cell-based; settings: 2 days culture, no stimulant (FIG. 9)
Procedure: Human peripheral blood mononuclear cells were introduced into a human complete medium (i.e., RPMI-1640 supplemented with 10% heat-inactivated FBS, 100 U/ml penicillin, and 100 μg/ml streptomycin) to prepare a cell suspension (1×10^5 cells/ml). Compound (I), the EGFR tyrosine kinase inhibitor (i.e., AZD9291 or Erlotinib), or a cytokine-inducing positive control (i.e., Imiquimod) was added to the cell suspension. A control group to which the EGFR tyrosine kinase inhibitor and others were not added was also prepared (i.e., the non-treatment group). The culture solution was cultured in an incubator at 37° C. in the presence of 5% CO2 for 2 days. The culture supernatant was recovered, and various types of cytokines were inspected with the use of the Bio-Plex Pro human cytokine assay kit.

MC38 = assay: Immune-system-associated gene expression in tumors via real-time PCR (Example 11); assay type: in vivo, mouse; settings: final day of administration, relative to control
Procedure: A cell suspension of the mouse colon cancer cell line MC38 was prepared with the use of PBS(-) and 50% Matrigel, and the cell suspension was injected subcutaneously into mice at 1×10^6 cells/mouse. The mice were divided into groups when the average subcutaneous tumor volume reached approximately 50 mm^3, Compound (I) (50 mg/kg) or the anti-PD-1 antibody (50 μg/mouse) was administered thereto alone or Compound (I) (50 mg/kg) was administered in combination with the anti-PD-1 antibody (50 μg/mouse), and the tumor volume was measured with the elapse of time. The tumor volume was determined on the basis of the longer diameter and the shorter diameter of the tumor measured percutaneously in accordance with Equation A shown below.
FIGS. 14 to 16 show changes in the immune-system-associated gene expression levels in tumors of the groups on the final day of administration of Compound (I). The tumor samples were obtained from the groups on the final day of administration of Compound (I) to prepare cDNA samples. The prepared cDNA samples were subjected to gene expression analysis via real-time PCR with the use of various immune-system-associated gene probes, and the results thereof were plotted. β-Actin was used as a control. Each plot indicates a gene expression level relative to a value of one of the controls. In the group to which Compound (I) had been administered, CD3, CD4, CD8, NK1.1, IL-2, IFN-γ, Perforin, Granzyme B, and CD69 gene expression levels increased, compared with those in the group to which Compound (I) had not been administered.

C=CC(=O)N[C@H]1CCc2c(-c3cnc4ccccc4c3)c3c(N)ncnc3n2C1 [Compound (I), (S)—N-(4-amino-5-(quinolin-3-yl)-6,7,8,9-tetrahydropyrimido[5,4-b]indolizin-8-yl)acrylamide]
cytokine concentrations relative to the non-treatment group [1]: induced the production of various types of cytokines | CD3 gene expression level in tumors (MC38; β-Actin control (FIG. 14)): increased | CD4 gene expression level in tumors (MC38; β-Actin control (FIG. 14)): increased | CD8 gene expression level in tumors (MC38; β-Actin control (FIG. 14)): increased | IFN-γ gene expression level in tumors (MC38; β-Actin control (FIG. 15)): increased | IL-2 gene expression level in tumors (MC38; β-Actin control (FIG. 15)): increased | NK1.1 gene expression level in tumors (MC38; β-Actin control (FIG. 15)): increased | CD69 gene expression level in tumors (MC38; β-Actin control (FIG. 16)): increased | Granzyme B gene expression level in tumors (MC38; β-Actin control (FIG. 16)): increased | Perforin gene expression level in tumors (MC38; β-Actin control (FIG. 16)): increased
